Assay: xn = mol fraction of the nth substance listed
Conditions: Liquid, Vibrating tube method

CC(C)=O [acetone] + CCCCCCC
Conditions | mass density [kg/m3]
387.33 K, 39820 kPa, x1 = 0.7024 | 691.19
387.33 K, 44790 kPa, x1 = 0.7024 | 696.6
387.33 K, 44850 kPa, x1 = 0.801 | 707.68
387.33 K, 44910 kPa, x1 = 0.4 | 722
387.33 K, 44910 kPa, x1 = 0.8992 | 722
387.33 K, 49890 kPa, x1 = 0.7024 | 701.8
387.33 K, 54870 kPa, x1 = 0.4 | 732.14
387.33 K, 54870 kPa, x1 = 0.8992 | 732.14
387.33 K, 59840 kPa, x1 = 0.492 | 692.57
387.33 K, 59880 kPa, x1 = 0.7024 | 711.17
387.33 K, 69820 kPa, x1 = 0.801 | 731
387.33 K, 69830 kPa, x1 = 0.4 | 745.58
387.33 K, 69830 kPa, x1 = 0.8992 | 745.58
387.33 K, 79900 kPa, x1 = 0.801 | 739.02
387.33 K, 84880 kPa, x1 = 0.801 | 742.74
387.33 K, 89860 kPa, x1 = 0.801 | 746.32
387.33 K, 99770 kPa, x1 = 0.7024 | 741.29
387.33 K, 99830 kPa, x1 = 0.801 | 753.17
387.33 K, 114840 kPa, x1 = 0.801 | 762.65
387.33 K, 124840 kPa, x1 = 0.801 | 768.53
387.33 K, 129850 kPa, x1 = 0.801 | 771.37
387.34 K, 1350 kPa, x1 = 0.492 | 613.12
387.34 K, 14820 kPa, x1 = 0.7024 | 656.98
387.34 K, 19850 kPa, x1 = 0.492 | 648.12
387.34 K, 24830 kPa, x1 = 0.7024 | 672.45
387.34 K, 24840 kPa, x1 = 0.492 | 655.23
387.34 K, 29850 kPa, x1 = 0.492 | 661.75
387.34 K, 34810 kPa, x1 = 0.7024 | 685.41
387.34 K, 34840 kPa, x1 = 0.492 | 667.74
387.34 K, 39870 kPa, x1 = 0.492 | 673.37
387.34 K, 44860 kPa, x1 = 0.492 | 678.6
387.34 K, 49850 kPa, x1 = 0.492 | 683.53
387.34 K, 54850 kPa, x1 = 0.492 | 688.17
387.34 K, 54880 kPa, x1 = 0.7024 | 706.61
387.34 K, 64820 kPa, x1 = 0.492 | 696.75
387.34 K, 64880 kPa, x1 = 0.7024 | 715.51
387.34 K, 69860 kPa, x1 = 0.7024 | 719.63
387.34 K, 69930 kPa, x1 = 0.492 | 700.84
387.34 K, 74840 kPa, x1 = 0.7024 | 723.6
387.34 K, 74900 kPa, x1 = 0.492 | 704.65
387.34 K, 79840 kPa, x1 = 0.7024 | 727.41
387.34 K, 79890 kPa, x1 = 0.492 | 708.31
387.34 K, 84810 kPa, x1 = 0.7024 | 731.07
387.34 K, 84890 kPa, x1 = 0.492 | 711.86
387.34 K, 89810 kPa, x1 = 0.7024 | 734.6
387.34 K, 89860 kPa, x1 = 0.492 | 715.24
387.34 K, 94770 kPa, x1 = 0.7024 | 737.98
387.34 K, 94840 kPa, x1 = 0.492 | 718.51
387.34 K, 99820 kPa, x1 = 0.492 | 721.68
387.34 K, 104740 kPa, x1 = 0.7024 | 744.46
387.34 K, 104800 kPa, x1 = 0.492 | 724.73
387.34 K, 109720 kPa, x1 = 0.7024 | 747.55
387.34 K, 109770 kPa, x1 = 0.492 | 727.68
387.34 K, 114800 kPa, x1 = 0.7024 | 750.59
387.34 K, 114840 kPa, x1 = 0.492 | 730.61
387.34 K, 119810 kPa, x1 = 0.7024 | 753.51
387.34 K, 119850 kPa, x1 = 0.492 | 733.41
387.34 K, 124820 kPa, x1 = 0.7024 | 756.37
387.34 K, 124850 kPa, x1 = 0.492 | 736.14
387.34 K, 129810 kPa, x1 = 0.7024 | 759.13
387.34 K, 129840 kPa, x1 = 0.492 | 738.77
397.26 K, 1500 kPa, x1 = 0.801 | 626.11
397.26 K, 1680 kPa, x1 = 0.4 | 640.61
397.26 K, 1680 kPa, x1 = 0.8992 | 640.61
397.26 K, 5010 kPa, x1 = 0.4 | 649.41
397.26 K, 5010 kPa, x1 = 0.8992 | 649.41
397.26 K, 14870 kPa, x1 = 0.611 | 638.19
397.26 K, 14980 kPa, x1 = 0.4 | 670.71
397.26 K, 14980 kPa, x1 = 0.8992 | 670.71
397.26 K, 19970 kPa, x1 = 0.4 | 679.48
397.26 K, 19970 kPa, x1 = 0.8992 | 679.48
397.26 K, 29940 kPa, x1 = 0.4 | 694.66
397.26 K, 29940 kPa, x1 = 0.8992 | 694.66
397.26 K, 44910 kPa, x1 = 0.4 | 713.39
397.26 K, 44910 kPa, x1 = 0.8992 | 713.39
397.26 K, 49900 kPa, x1 = 0.4 | 718.87
397.26 K, 49900 kPa, x1 = 0.8992 | 718.87
397.26 K, 54890 kPa, x1 = 0.4 | 724.02
397.26 K, 54890 kPa, x1 = 0.8992 | 724.02
397.26 K, 59880 kPa, x1 = 0.4 | 728.9
397.26 K, 59880 kPa, x1 = 0.8992 | 728.9
397.26 K, 64940 kPa, x1 = 0.611 | 699.14
397.26 K, 69840 kPa, x1 = 0.4 | 738.01
397.26 K, 69840 kPa, x1 = 0.8992 | 738.01
397.26 K, 74820 kPa, x1 = 0.4 | 742.26
397.26 K, 74820 kPa, x1 = 0.8992 | 742.26
397.26 K, 84790 kPa, x1 = 0.4 | 750.27
397.26 K, 84790 kPa, x1 = 0.8992 | 750.27
397.26 K, 89770 kPa, x1 = 0.4 | 754.07
397.26 K, 89770 kPa, x1 = 0.8992 | 754.07
397.26 K, 104690 kPa, x1 = 0.4 | 764.67
